Results: patent US20240239755A1, “SUBSTITUTED PYRIDAZINONES, SALTS OR N-OXIDES THEREOF AND THEIR USE AS HERBICIDALLY ACTIVE SUBSTANCES” (Bayer Aktiengesellschaft, priority 2021, published 2024)

Assays:
Type in all cases: in vivo
[1] = system: Lolium rigidum (LOLRI); assay: Herbicidal post-emergence action, 1280 g/ha (Table B5); details: visual assessment after ca. 3 weeks vs untreated controls
Outline: (§1)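 Visual percent damage relative to untreated plants (100% dead, 0% no effect) was rated about 3 weeks after treatment in the greenhouse. WP or EC preparations with 0.5% additive were applied at 600 L water/ha onto single-leaf-stage plants grown 2–3 weeks in sandy loam pots.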

[2] = system: Stellaria media (STEME); assay: Herbicidal post-emergence action, 1280 g/ha (Table B9); details: visual assessment after ca. 3 weeks vs untreated controls
Outline: as §1

[3] = system: Kochia scoparia (KCHSC); assay: Herbicidal post-emergence action, 1280 g/ha (Table B4); details: visual assessment after ca. 3 weeks vs untreated controls
Outline: as §1

[4] = system: Lolium rigidum (LOLRI); assay: Herbicidal pre-emergence action, 320 g/ha (Table C2); details: visual grading after ca. 3 weeks vs untreated controls
Excerpt: (§2) Seeds of mono- and dicotyledonous weed plants were sown in plastic pots (double sowings with one species of mono- and one species of dicotyledonous weed plants per pot), in sandy loam, and covered with soil. The compounds according to the invention, formulated in the form of wettable powders (WP) or as emulsifiable concentrates (EC), were applied to the surface of the covering soil as an aqueous suspension or as an emulsion, with the addition of 0.5% of an additive, at an application rate of 600 litres of water per hectare (converted). Following treatment, the pots were placed in a greenhouse and kept under optimum growth conditions for the test plants. The visual grading of the damage to the test plants was carried out after ca. 3 weeks in comparison to untreated controls (herbicidal effect in percent (%): 100% effect=plants have died, 0% effect=as control plants). Tables C1 to C6 below, show the effects of selected compounds of the general formula (I) according to Table 1 on various harmful plants using an application rate corresponding to 320 g/ha obtained by the experimental procedure mentioned above.

[5] = system: Amaranthus retroflexus (AMARE); assay: Herbicidal pre-emergence action, 1280 g/ha (Table A11); details: visual grading after ca. 3 weeks vs untreated controls
Outline: (§3)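 Compounds were formulated as WP or EC and sprayed onto the covering soil of freshly sown pots (sandy loam) in 600 L water/ha with 0.5% additive. Pots were kept in a greenhouse, and damage was scored visually after ca. 3 weeks as % effect versus untreated controls (100% = dead).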

[6] = system: Abutilon theophrasti (ABUTH); assay: Herbicidal pre-emergence action, 1280 g/ha (Table A1); details: visual grading after ca. 3 weeks vs untreated controls
Outline: as §3

[7] = system: Echinochloa crus-galli (ECHCG); assay: Herbicidal post-emergence action, 1280 g/ha (Table B3); details: visual assessment after ca. 3 weeks vs untreated controls
Excerpt: (§4) Seeds of mono- and dicotyledonous weed plants were sown in plastic pots (double sowings with one species of mono- and one species of dicotyledonous weed plants per pot), in sandy loam, covered with soil and grown under controlled growth conditions. 2 to 3 weeks after sowing, the test plants were sprayed in the single-leaf stage. The compounds according to the invention, formulated in the form of wettable powders (WP) or as emulsifiable concentrates (EC), were sprayed onto the green plant parts as an aqueous suspension or as an emulsion, with the addition of 0.5% of an additive, at an application rate of 600 litres of water per hectare (converted). The test plants were placed in the greenhouse for ca. 3 weeks under optimum growth conditions, and then the effect of the preparations was assessed visually in comparison with untreated controls (herbicidal effect in percent (%): 100% effect=plants have died, 0% effect=as control plants). Tables B1 to B11 below, show the effects of selected compounds of the general formula (I) according to Table 1 on various harmful plants using an application rate corresponding to 1280 g/ha obtained by the experimental procedure mentioned above.

[8] = system: Abutilon theophrasti (ABUTH); assay: Herbicidal post-emergence action, 1280 g/ha (Table B1); details: visual assessment after ca. 3 weeks vs untreated controls
Outline: as §1

[9] = system: Matricaria inodora (MATIN); assay: Herbicidal pre-emergence action, 1280 g/ha (Table A6); details: visual grading after ca. 3 weeks vs untreated controls
Outline: as §3

[10] = system: Matricaria inodora (MATIN); assay: Herbicidal post-emergence action, 1280 g/ha (Table B6); details: visual assessment after ca. 3 weeks vs untreated controls
Outline: as §1

[11] = system: Lolium rigidum (LOLRI); assay: Herbicidal pre-emergence action, 1280 g/ha (Table A5); details: visual grading after ca. 3 weeks vs untreated controls
Outline: as §3

[12] = system: Abutilon theophrasti (ABUTH); assay: Herbicidal post-emergence action, 320 g/ha, ABUTH; details: visual grading after ca. 3 weeks
Outline: (§5)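 Weeds grown in sandy loam were sprayed post-emergence at the single-leaf stage, 2–3 weeks after sowing. Compounds were formulated as WP or EC with 0.5% additive and applied at 320 g/ha in 600 L water/ha. After ~3 weeks in the greenhouse, damage was scored visually as % versus untreated controls (100% = dead).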

[13] = system: Amaranthus retroflexus (AMARE); assay: Herbicidal post-emergence action, 320 g/ha, AMARE; details: visual grading after ca. 3 weeks
Outline: as §5

[14] = system: Kochia scoparia (KCHSC); assay: Herbicidal pre-emergence action, 1280 g/ha (Table A4); details: visual grading after ca. 3 weeks vs untreated controls
Outline: as §3

[15] = system: Veronica persica (VERPE); assay: Herbicidal post-emergence action, 1280 g/ha, VERPE; details: visual grading vs untreated controls
Outline: (§6)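 Visual rating ~3 weeks after treatment: 0% equals untreated control, 100% means plants died. Treatment was a 1280 g/ha foliar spray (600 L water/ha, 0.5% additive, WP or EC formulation) applied to single-leaf-stage plants grown 2–3 weeks in sandy loam under controlled conditions.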

[16] = system: Amaranthus retroflexus (AMARE); assay: Herbicidal post-emergence action, 1280 g/ha, AMARE; details: visual grading vs untreated controls
Outline: as §6

[17] = system: Stellaria media (STEME); assay: Herbicidal pre-emergence action, 1280 g/ha (Table A9); details: visual grading after ca. 3 weeks vs untreated controls
Outline: as §3

[18] = system: Stellaria media (STEME); assay: Herbicidal post-emergence action, 320 g/ha, STEME; details: visual grading after ca. 3 weeks
Outline: as §5

[19] = system: Setaria viridis (SETVI); assay: Herbicidal pre-emergence action, 1280 g/ha (Table A8); details: visual grading after ca. 3 weeks vs untreated controls
Excerpt: as §2, with “A1” for “C1”, “A11” for “C6”, “and” for “using”, “1280” for “320”

[20] = system: Veronica persica (VERPE); assay: Herbicidal post-emergence action, 320 g/ha, VERPE; details: visual grading after ca. 3 weeks
Excerpt: as §4, with “plants).” for “plants). Tables B1 to B11 below, show the effects of selected compounds of the general formula (I) according to Table 1 on various harmful plants using an application rate corresponding to 1280 g/ha obtained by the experimental procedure mentioned above.”
Tables D1 to D8 below, show the effects of selected compounds of the general formula (I) according to Table 1 on various harmful plants using an application rate corresponding to 320 g/ha obtained by the experimental procedure mentioned above.

[21] = system: Setaria viridis (SETVI); assay: Herbicidal post-emergence action, 1280 g/ha (Table B8); details: visual assessment after ca. 3 weeks vs untreated controls
Excerpt: as §4

[22] = system: Poa annua (POAAN); assay: Herbicidal pre-emergence action, 1280 g/ha (Table A7); details: visual grading after ca. 3 weeks vs untreated controls
Excerpt: as §2, with “A1” for “C1”, “A11” for “C6”, “and” for “using”, “1280” for “320”

[23] = system: Stellaria media (STEME); assay: Herbicidal pre-emergence action, 320 g/ha, STEME; details: visual grading after ca. 3 weeks
Outline: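 Percent herbicidal effect, graded by eye about 3 weeks after treatment relative to untreated pots (0% matching controls, 100% dead plants). Application of 320 g/ha onto soil covering freshly sown seeds, as aqueous suspension or emulsion plus 0.5% additive at 600 L/ha; pots kept in greenhouse.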

Row | SMILES | herbicidal effect LOLRI [1] [%] | herbicidal effect STEME [2] [%] | herbicidal effect KCHSC [3] [%] | herbicidal effect LOLRI [4] [%] | herbicidal effect AMARE [5] [%] | herbicidal effect ECHCG [7] [%] | herbicidal effect ABUTH [8] [%] | herbicidal effect MATIN [9] [%] | herbicidal effect MATIN [10] [%] | herbicidal effect LOLRI [11] [%] | herbicidal effect ABUTH [12] [%] | herbicidal effect AMARE [13] [%] | herbicidal effect KCHSC [14] [%] | herbicidal effect VERPE [15] [%] | herbicidal effect AMARE [16] [%] | herbicidal effect STEME [17] [%] | herbicidal effect STEME [18] [%] | further results
1 | CC(=O)Oc1c(C)nn(C)c(=O)c1Oc1ccccc1OC(F)(F)F [Example I-029] | 90 | 100 | 90 | 90 | 100 | 90 | 100 | 100 | 90 | 100 | 90 | 90 | 90 | 90 | 90 | 100 | 90 | herbicidal effect ABUTH [6]: 90%
2 | Cc1nn(C)c(=O)c(Oc2cc(F)c(F)cc2C2CC2)c1O [Example I-101] | 90 | 100 | 90 | 90 | 100 | – | 100 | 100 | 90 | 100 | 90 | 90 | 100 | 100 | 100 | 100 | 90 | herbicidal effect SETVI [19]: 90%; herbicidal effect VERPE [20]: 90%
3 | CCOC(=O)Oc1c(C)nn(C)c(=O)c1Oc1cc(F)ccc1Br [Example I-088] | 90 | 90 | – | 90 | 100 | – | – | 100 | 90 | 100 | – | 90 | – | – | 100 | 90 | – | herbicidal effect SETVI [21]: 90%
4 | Cc1nn(C)c(=O)c(Oc2ccccc2C(C)C)c1O [Example I-022] | 90 | 100 | – | 100 | 90 | 90 | 100 | 90 | 90 | 100 | 90 | 90 | 90 | – | 90 | 100 | 90 | herbicidal effect POAAN [22]: 90%; herbicidal effect STEME [23]: 100%
